# No end group written: not given here.
# Tests used:
# E. faecalis LMGT 3359 = system: E. faecalis LMGT 3359
# Experimental: (§1) Bacterial strains, growth conditions, bacteriocins and antimicrobial assays. All the strains (see below) used in minimal inhibitory concentration (MIC) assays (Varahan et al., 2014, M. Bio. 5:e01726-01714) were grown in BHI medium (Oxoid) at 30° C. without shaking. A collection of E. faecium strains isolated from blood in patients from different European hospitals was received from Department of Medical Microbiology, University Medical Center Utrecht, the Netherlands. […] Synthesized peptides were solubilized to concentrations of 10.0-0.1 mg/ml in 0.1% (vol/vol) trifluoroacetic acid and stored at −20° C. until use. […] Bacteriocin activity was determined by microtiter plate assay as previously described (Holo et al., 1991, J. Bacteriol., 173:3879-3887). The MIC was defined as the minimal bacteriocin concentration that inhibited the growth of the indicator strain by at least 50% (50% of the turbidity of the control culture without bacteriocin) in 200 μl culture. CD Spectroscopy Circular dichroism (CD) spectra were recorded using a Jasco J-810 spectropolarimeter (Jasco International Co) calibrated with D-camphor-10-sulfonate (Icatayama Chemical). All measurements were made using a quartz cuvette (Sterna) with 0.1 cm path length. Samples were scanned five times with a scanning rate of 50 nm/min with a bandwidth of 0.5 nm and response time of 1 s over the wavelength range 190-250 nm. Spectra were recorded at different (30 and 50%) trifluoroethanol (TFE) (Aldridge) concentrations at 25° C. The approximate α-helical content of the protein was estimated from its molar ellipticity at 222 nm (Scholtz et al., 1991, Biopolymers 31:1463-1470). NMR Spectroscopy The experiments were run on a sample containing 1.0 mM EntK1, 50% D3-TFE (99.5% D) (Aldrich), Milli-Q water and 0.2 mM of 4,4-dimethyl-4-silapentane-1-sulfonic acid (DSS) (Larodan). 2D NOESY (Jeener et al., 1979, J. Magn. Reson., 71:4546-4553), 2D TOCSY (Braunschweiler and Ernst, 1983, J. Magn. Reson., 53:521-528), 2D DQCOSY, ^15N-HSQC (Davis et al., 1992, J. Magn. Reson., 98:207-216) and ^13C-HSQC (Hurd, 1991, J. Magn. Reson., 91:648-653) were recorded. The data was acquired on a 600 MHz Bruker Avance II spectrometer with four channels and a 5 mm TCI cryoprobe (Bruker Biospin). NOESY spectra with mixing times between 120 ms and 300 ms were obtained for both samples. TOCSY mixing times of 15-80 ms were used. The experiments were run at 298.15 K. Spectra were processed using the Topspin program (Bruker Biospin). 4,4-dimethyl-4-silapentane-1-sulfonic acid (DSS) was used as a chemical shift standard, and ^15N and ^13C data were referenced using frequency ratios as described in (Wishart et al., 1995, J. Biomol. NMR., 6:135-140). For visualization, assignment and integration of the spectra the computer program CARA was used (Keller, 2004, The Computer Aided Resonance Assignment Tutorial. CANTINA Verlag, Goldau, Switzerland). The spectra were assigned using standard methods. Dihedral angle restraints were obtained from the chemical shift values using the program TALOS-N(Shen and Bax, 2013, J. Biomol. NMR, 56:227-241). Nuclear Overhauser effect (NOE) distance restraints were calculated from the peak volumes in the NOESY spectra with NOESY mixing time of 200 ms. All structure calculations were made using the structure calculation program CYANA 2.1 (Guntert et al., 1997, J. Mol. Biol., 273:283-298; Herrmann et al., 2002, J. Mol. Biol., 319:209-227). The annealing macro in CYANA calculated 100 structures. The 20 structures with the lowest energy were kept and analyzed further. The root-mean-square deviation (RMSD) was calculated and the structures were visualized using MolMol (Koradi et al., 1996, J. Mol. Graph., 14:51-55, 29-32). Generation of bacteriocin resistant mutants of E. faecalis and E. faecium.
# [1] = system: S. pneumoniae ds220 non-induced; conditions: WT rseP
# Experimental: as §1
# E. faecalis LMGT 3567 = system: E. faecalis LMGT 3567
# Experimental: as §1
# S. pneumoniae ds 221 = conditions: ds 221, no rseP
# Experimental: as §1
# E. faecium LMGT 3192 = system: E. faecium LMGT 3192
# Experimental: as §1
# E. faecalis LMGT 3386 = system: E. faecalis LMGT 3386
# Experimental: as §1
# B. cercus LMGT 2735 = system: B. cercus LMGT 2735
# Experimental: as §1
# E. faecalis LMGT 3370 = system: E. faecalis LMGT 3370
# Experimental: as §1
# L. lactis LMGT 2233 = system: L. lactis LMGT 2233
# Experimental: as §1
# S. pneumoniae ms3 = conditions: ms3, rseP H22>A, induced with ComS (2 μM)
# Experimental: as §1
# L. garvieae LMGT 2217 = system: L. garvieae LMGT 2217
# Experimental: as §1
# S. pneumoniae ms2 = conditions: ms2, rseP E19>A, induced with ComS (2 μM)
# Experimental: as §1
# [2] = system: Lactococcus garvieae LMGT 1546
# Experimental: as §1
# [3] = system: S. pneumoniae ds220 induced; conditions: ds220 induced with ComS (2 μM), WT rseP
# Experimental: as §1
# E. faecium LMGT 2769 = system: E. faecium LMGT 2769
# Experimental: as §1
# E. faecalis LMGT 3571 = system: E. faecalis LMGT 3571
# Experimental: as §1
# S. epidermidis LMGT 3026 = system: S. epidermidis LMGT 3026
# Experimental: as §1
# S. aureus LMGT 3266 = system: S. aureus LMGT 3266
# Experimental: as §1
# S. aureus LMGT 3289 = system: S. aureus LMGT 3289
# Experimental: as §1
# E. faecalis LMGT 3358 = system: E. faecalis LMGT 3358
# Experimental: as §1
# [4] = system: Listeria monocytogenes LMGT 2651
# Experimental: as §1
Sequence,MIC 50 (E. faecalis LMGT 3359),MIC [1],MIC 50 (E. faecalis LMGT 3567),MIC (S. pneumoniae ds 221),MIC 50 (E. faecium LMGT 3192),MIC 50 (E. faecalis LMGT 3386),MIC 50 (B. cercus LMGT 2735),MIC 50 (E. faecalis LMGT 3370),MIC 50 (L. lactis LMGT 2233),MIC (S. pneumoniae ms3),MIC 50 (L. garvieae LMGT 2217),MIC (S. pneumoniae ms2),MIC 50 [2],MIC [3],MIC 50 (E. faecium LMGT 2769),MIC 50 (E. faecalis LMGT 3571),MIC 50 (S. epidermidis LMGT 3026),MIC 50 (S. aureus LMGT 3266),MIC 50 (S. aureus LMGT 3289),MIC 50 (E. faecalis LMGT 3358),other results
MKFKFNPTGTIVKKLTQYEIAWFKNKHGYYPWEIPRC [EntK1],>5.5 µM,>5.5 µM,>5.5 µM,>5.5 µM,0.02 µM,>5.5 µM,>5.5 µM,5.5 µM,>5.5 µM,>5.5 µM,0.34 µM,>5.5 µM,1.37 µM,0.7 µM,0.045 µM,>5.5 µM,>5.5 µM,>5.5 µM,>5.5 µM,2.7 µM,MIC 50 [4]: >5.5 µM
"MKTILRFVAGYDIASHKKKTGGYPWERGKA [LsbB, reference compound]",>7 µM,>7 µM,>7 µM,>7 µM,>7 µM,>7 µM,>7 µM,>7 µM,>7 µM,>7 µM,>7 µM,>7 µM,>7 µM,>7 µM,>7 µM,>7 µM,>7 µM,>7 µM,>7 µM,>7 µM,MIC 50 [4]: >7 µM
MLAKIKAMIKKFPNPYTLAAKLTTYEINWYKQQYGRYPWERPVA [EntEJ97],0.145 µM,>4.5 µM,0.295 µM,>4.5 µM,0.295 µM,0.295 µM,>4.7 µM,0.145 µM,0.145 µM,0.3 µM,0.295 µM,0.3 µM,0.295 µM,0.018 µM,0.145 µM,0.295 µM,>4.7 µM,1.175 µM,>4.7 µM,0.075 µM,MIC 50 [4]: 2.3 µM

# Source: patent publication US11648289B2, “Antibacterial method” (priority 2016, dated 2023)
